From patent publication US20100324017A1, “ACYLGUANIDINE DERIVATIVE” (priority 2007, published 2010)

Tests used:
[1] = test system: scopolamine-induced spontaneous alternation behavior disorder; assay: Scopolamine-induced spontaneous alternation behavior disorder in mice (Y-maze); format: in vivo; details: mouse, scopolamine 0.5 mg/kg i.p.
Procedure: An Improvement Effect for Scopolamine-Induced or MK-801-Induced Spontaneous Alternation Behavior in Mice
An improvement effect of the compound (I) for cognitive impairment was evaluated by the above-described well-known test method as a model of a short-term learning disorder.
Species: Male ddY mice/number of animals (number of animals per group): 6 to 10 animals per group
A mouse was introduced into the laboratory 1 hour before starting the test. The mouse was placed at one end of an arm in a Y-maze having equal lengths of arms in three directions, and was able freely explored for 8 minutes with the number of the entries into the arms were counted. Furthermore, a spontaneous alternation behavior was defined as consecutive entries into each of the three arms, and an alternation rate was defined as the percentage of the number of time of this behavior relative to the total number of the entries, and calculated by the following equation.
Alternation rate (%)=(number of spontaneous alternation behaviors/total number of entries−2)×100.
The compound to be tested was orally administered 50 minutes before the initiation of the test, and 30 minutes later, 0.5 mg/kg of scopolamine or 0.15 mg/kg of MK-801 (in the normal group, physiological saline) was intraperitoneally administered. Furthermore, for the normal group (the group administered with physiological saline) and the control group (the group administered with 0.5 mg/kg scopolamine or 0.15 mg/kg MK-801), a solvent (vehicle) was orally administered when the compound to be tested was administered. For the normal group, physiological saline was intraperitoneally administered when scopolamine was administered.
The alternation rate (%) is expressed as an average value in each group (mean±SE). In regard to the alternation rate (%), in the case where a significant difference between the normal group and the control group (Student's T test) was found, it was considered that there was an establishment of learning disorder by the administration of scopolamine or MK-801. By carrying out the Dunnett evaluation for the group administered with the compound to be tested relative to the control group, the presence or absence of the learning disorder action of the compound to be tested was determined. In each evaluation, it was considered that there was a tendency at p<0.10, and there was a significant difference at p<0.05.

[2] = test system: MK-801-induced overactivity; assay: MK-801-induced overactivity in mice, kinetic momentum by infrared sensor; format: in vivo; details: mouse, oral, MK-801 0.3 mg/kg i.p.
Procedure: (§1) Evaluation of Various Drugs Relative to a Drug for Increasing the Kinetic Momentum of Mice (Methane Phetamine, MK-801) (Method for Measuring a Kinetic Momentum by Discharge of an Infrared Ray)
(§2) The effect of improving the positive symptoms and the negative symptoms of schizophrenia by the compound (I) was evaluated by measuring the kinetic momentum that had been […] with administration of the compound in a model causing the symptoms by methane phetamine (which is hereinafter simply referred to as MAP) and MK-801.
(§3) Species: Male ICR mouse/number of animals (number of animals per group): 8 to 12 animals per group
(§4) The animal was left in a laboratory for 1 hour or longer to be acclimated to the environment, and the animal was taken from the feeding cage, orally administered with a compound to be tested, and then returned to the feeding cage. After 30 minutes, it was put into a cage for measurement, and the kinetic momentum of just the compound to be tested was measured. Further, after 30 minutes, the animal was taken out, and intraperitoneally administered with a drug for increasing kinetic momentum (MAP; 1 mg/kg or MK-801; 0.3 mg/kg, all dissolved in physiological saline), and its kinetic momentum was measured for a certain time (60 minutes) using a device for measuring the kinetic momentum by means of an infrared ray sensor (CompACT AMS, Muromachi Kikai Co., Ltd.). Also, the test was carried out under non-fasting.
(§5) The 60 minutes of measurements was classified into three groups: a first half 30 minutes, a second half 30 minutes, and a total 60 minutes. For a normal mouse (a mouse administered with physiological saline) and a mouse administered with the drug for increasing kinetic momentum, a Student's T test was used for evaluation in each interval. For the group administered with the compound to be tested, a solvent (vehicle) group and a Dunnett's T test were carried out and evaluated. For the evaluation, in case where there was a significant (P<0.05) difference for the total 60 minutes, it was considered to be effective.

[3] = molecular target: T1, human 5-HT5A receptor (Homo sapiens, UniProt P47898); assay: Test of human 5-HT5A receptor binding inhibition ([3H]5-CT, HEK293 cell membrane); details: [3H]5-CT binding, membrane of HEK293 cell expressing human 5-HT5A receptor
T1 construct: expressed in transfected cells; membrane preparation
T1 sequence (P47898 whole entry): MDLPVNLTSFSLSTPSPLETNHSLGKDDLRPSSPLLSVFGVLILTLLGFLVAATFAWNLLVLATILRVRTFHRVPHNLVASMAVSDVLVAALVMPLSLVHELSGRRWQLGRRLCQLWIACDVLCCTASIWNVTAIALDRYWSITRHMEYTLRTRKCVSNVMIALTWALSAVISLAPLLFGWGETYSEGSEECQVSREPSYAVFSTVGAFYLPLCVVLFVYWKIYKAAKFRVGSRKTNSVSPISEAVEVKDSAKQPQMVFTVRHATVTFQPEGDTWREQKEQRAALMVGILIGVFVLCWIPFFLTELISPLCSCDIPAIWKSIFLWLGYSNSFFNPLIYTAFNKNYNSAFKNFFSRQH
Procedure: An ORF of a human 5-HT5A receptor (Genbank AF498985) was cloned from a human hippocampal cDNA library, and then inserted into a pCR2.1 vector (Invitrogen), and Escherichia coli having the plasmid was mass cultured. Next, the human 5-HT5A receptor full-length cDNA sequence was analyzed, recombined into a pCDNA3.1 vector (Invitrogen) as an expression vector, and mass cultured. A human embryonic kidney-induced cell HEK293 cell (ATCC) was seeded, and the resulting expression plasmid (1 μg) above was added thereto together with LIPOFECTAMINE 2000 (Invitrogen; 2 μl), a gene was introduced into the HEK293 cell, and then Geneticin (G418 sulfate 500 μg/ml; Kanto Chemical Co., Inc.) was used as a drug-resistant marker to screen the expressing cell. Thus prepared gene-expressing recombinant cell was cultured in a D-MEM, 10% FCS, 1% Pc./Sm., 500 μg/ml G418 culture medium for 3 days. This experimental operation was conducted in accordance with a gene operation experiment manual of a known method (Sambrook, J. et al, Molecular Cloning-A Laboratory Manual“, Cold Spring Harabor Laboratory, NY, 1989), etc., an instruction appended in a reagent or the like.
(1) Preparation of a Membrane from an HEK293 Cell Forcibly Expressing a Human 5-HT5A Receptor
An HEK293 cell forcibly expressing a human 5-HT5A receptor was cultured in an F500 plate, and scraped for collection using a scraper. After centrifugation, the precipitates were collected and an incubation buffer (50 mM Tris (HCl) PH 7.4, 10 mM Mg504, 0.5 mM EDTA) was added thereto. After homogenization, it was further centrifuged, an incubation buffer was added to the precipitate, and the mixture was well suspended. These operations were repeatedly conducted, the protein concentration was then measured, and the preparation of a membrane was completed.
(2) Experiment on Human 5-HT5A Receptor Binding Inhibition
The compound to be tested (0.3 to 300 nM) and a 100 μM 5-CT solution in DMSO were added to a 96-well plate at 2 μl/well. The number of the wells to be measured under the same condition in one experiment was set at 2, and an average value thereof was used. It was suspended in an incubation buffer, and a HEK293 cell membrane forcibly expressing a human 5-HT5A receptor that had been prepared at 200 μg/ml was added thereto at 100 μl/well. The mixture was incubated at room temperature for 15 minutes, and a [^3H]5-CT solution (2 nM [^3H]5-CT, an incubation buffer) was then added thereto at 100 μl/well.
Separate from this, 100 μl of the solution was dispersed to a liquid scintillation vial, 2 ml of Aquasol II (registered trademark) was added thereto, followed by stirring, and the radioactivity was then measured with a liquid scintillation counter. The solution was incubated at 37° C. for 60 minutes. The reaction liquid was sucked to a 96-well GF/C filter plate that had been preliminarily treated with 0.2% polyethyleneimine, and washed six times with an ice-cooled 50 mM Tris (pH 7.5) buffer. The GF/C filter plate was dried.
MicroscintTMPS (registered trademark) was added thereto at 40 μl/well. The radioactivity remaining on the GF/C filter plate was measured in a top counter.
For the inhibitory activity for the binding of the [^3H]5-CT by the compound to be tested in each experiment, IC50 value was calculated by taking the radioactivity when only DMSO was added as 0% inhibition, and the radioactivity when 1 μM 5-CT was added as 100% inhibition. Apart from this, a Ki value was calculated from the Kd value of the [^3H]5-CT that had been determined by Scatchard analysis.
Ki=IC50 (1+Concentration of the ligands added/Kd (4.95 nM))

[4] = test system: MAP-induced overactivity; assay: MAP (methane phetamine)-induced overactivity in mice, kinetic momentum by infrared sensor; format: in vivo; details: mouse, oral, dose 0.01 mg/kg; MAP 1 mg/kg i.p.; total 60 minutes, P<0.05
Procedure: as §1, §2, §3, §4, §5

[5] = dose 0.01 mg/kg, total 60 minutes, P<0.05

Row | Compound | Ki [3] | inhibition of MK-801-induced overactivity [2, 5] | inhibition of MAP-induced overactivity [4] | also measured
1 | Cl.Cl.NC(N)=NC(=O)c1ccc2c3ccccc3n(C3CCNCC3)c2c1 [Example 6, N-(diaminomethylene)-9-piperidin-4-yl-9H-carbazole-2-carboxamide dihydrochloride] | ≤ 50 nM | significantly inhibited | significantly inhibited | inhibition of scopolamine-induced spontaneous alternation behavior disorder ([1]; oral, dose 0.003 mg/kg): significantly inhibited
2 | CC(=O)n1c2ccccc2c2ccc(C(=O)N=C(N)N)cc21 [Example 26] | ≤ 50 nM | – | – | inhibition of scopolamine-induced spontaneous alternation behavior disorder ([1]; oral, dose 0.03 mg/kg): significantly inhibited
3 | CC(C)n1c2cc(C(=O)N=C(N)N)ccc2c2c(Cl)cccc21 [Example 59] | ≤ 50 nM | – | – | inhibition of scopolamine-induced spontaneous alternation behavior disorder ([1]; oral, dose 0.03 mg/kg): significantly inhibited
4 | NC(N)=NC(=O)c1ccc2c3ccccc3n(Cc3cccs3)c2c1 [Example 135] | ≤ 50 nM | significantly inhibited | significantly inhibited | inhibition of scopolamine-induced spontaneous alternation behavior disorder ([1]; oral, dose 0.003 mg/kg): significantly inhibited
5 | N/C(=N\C(=O)c1ccc2c3ccccc3n(C3CCOCC3)c2c1)NCC1CC1 [Example 178] | ≤ 50 nM | significantly inhibited | – | –
6 | COc1cccc(CN/C(N)=N/C(=O)c2ccc3c4ccccc4n(C4CCOCC4)c3c2)c1 [Example 194] | ≤ 50 nM | – | – | inhibition of MK-801-induced overactivity ([2]; dose 0.03 mg/kg): significantly inhibited
7 | COc1cc2c(cc1OC)C(=O)C(CC1CCN(Cc3ccccc3)CC1)C2 (stereo not shown) [donepezil, reference compound] | – | – | – | inhibition of scopolamine-induced spontaneous alternation behavior disorder ([1]; dose 0.25 mg/kg): significantly inhibited

The next lines start with results.

Row | Ki [3] | Compound | inhibition of MK-801-induced overactivity [2, 5] | inhibition of MAP-induced overactivity [4] | also measured
8 | 0.56 nM | NC(N)=NC(=O)c1ccc2c3c(F)cccc3n(C3CCOCC3)c2c1 [Example 86] | significantly inhibited | significantly inhibited | inhibition of scopolamine-induced spontaneous alternation behavior disorder ([1]; oral, dose 0.0001 mg/kg): significantly inhibited
9 | 0.27 nM | Cc1cc(C(=O)N=C(N)N)cc2c1c1ccccc1n2C1CCOCC1 [Example 106] | – | significantly inhibited | inhibition of scopolamine-induced spontaneous alternation behavior disorder ([1]; oral, dose 0.0001 mg/kg): significantly inhibited; inhibition of MK-801-induced overactivity ([2]; dose 0.03 mg/kg): significantly inhibited
10 | ≤ 50 nM | NC(N)=NC(=O)c1cc(F)c2c3c(F)cccc3n(C3CCOCC3)c2c1 [Example 146] | significantly inhibited | – | –
11 | ≤ 50 nM | NC(N)=NC(=O)c1cc(Cl)c2c3ccccc3n(C3CCOCC3)c2c1 [Example 150] | – | – | inhibition of MK-801-induced overactivity ([2]; dose 0.1 mg/kg): significantly inhibited
12 | ≤ 50 nM | Cc1cccc2c1c1ccc(C(=O)N=C(N)N)cc1n2C1CC=C(F)CC1 (stereo not shown) [Example 161] | – | – | inhibition of MK-801-induced overactivity ([2]; dose 0.1 mg/kg): significantly inhibited
